Data on 23 compounds can be found in patent US9533983B2, “Antiplatelet agent” (Mitsubishi Tanabe Pharma Corporation, priority 2009, dated 2017).

Test [1] relates to Collagen-Induced Platelet Aggregation. In words: Platelet aggregation inhibitory activity: collagen-induced platelet aggregation in platelet rich plasma. Format: cell-based. Particulars: Cavia porcellus, guinea pig PRP. As for the experimental part: (§1) A blood of a guinea pig was sampled by using a 1/10 volume of a 3.8% sodium citrate as a platelet aggregation inhibitor, and a platelet rich plasma (PRP) was separated by centrifuging the blood sample at 1100 rpm for 10 min. After fractionating the PRP in the upper layer, the lower layer was centrifuged at 3000 rpm for 10 min to fractionate the platelet poor plasma (PPP). To 100 μL of PRP, a 1 μL solution of each compound was added, and after still standing at 37° C. for 1 min, the mixture was stirred at 37° C. for 1 min by a stirrer. Then, 11 μL of collagen, ristocetin, or ADP was added thereto to induce the platelet aggregation. The platelet aggregation ability was measured by using the mCM hematolaser 313M (L-M-S Inc.). Based on the assumption that a light transmittance of PPP corresponds to a 100% coagulation value, an aggregation rate at each concentration of the compound was determined, then, an IC50 value was calculated therefrom.
[Platelet Aggregation Inhibitory Activities: Collagen-Induced Platelet Aggregation]

Test [2] has as its system Ristocetin-Induced Platelet Aggregation. In words: Platelet aggregation inhibitory activity: ristocetin-induced platelet aggregation in platelet rich plasma. Particulars: Cavia porcellus, guinea pig PRP. Format: cell-based. The method, then: as §1
[Platelet Aggregation Inhibitory Activities: Ristocetin-Induced Platelet Aggregation]

Each structure is given as a SMILES string.

What is called IC50 is the concentration that gives 50% inhibition. Read a low IC50 as higher potency.

In the case of `COc1ccc(-n2c(-c3cscn3)nc3cc(C(F)(F)F)ccc32)nn1` [Example 89, 1-(6-methoxypyridazin-3-yl)-2-(1,3-thiazol-4-yl)-5-(trifluoromethyl)-1H-benzimidazole], the IC50 was determined as 53 nM in test [1] and 70 nM in test [2].
Taken in the same sequence, the figures for `COc1ccc(-n2c(-c3cnc(C)cn3)nc3cc(C(F)(F)F)ccc32)nn1` [Example 90, 1-(6-methoxypyridazin-3-yl)-2-(5-methylpyrazine-2-yl)-5-(trifluoromethyl)-1H-benzimidazole] were 60 nM and 20 nM.
Consider `COc1ccc(-n2c(-c3csc(C)n3)nc3cc(C(F)(F)F)ccc32)nn1` [Example 94, 1-(6-methoxypyridazin-3-yl)-2-(2-methyl-1,3-thiazol-4-yl)-5-(trifluoromethyl)-1H-benzimidazole], for which the results for the concentration for half-maximal inhibition (IC50) in test [1] and in test [2] were 190 nM and 100 nM, respectively.
Taken in the same sequence, the figures for `COc1ccc(-n2c(-c3cocn3)nc3cc(C(F)(F)F)cnc32)cn1` [Example 107, 3-(6-methoxypyridin-3-yl)-2-(1,3-oxazol-4-yl)-6-(trifluoromethyl)-3H-imidazo[4,5-b]pyridine] were 66 nM and 35 nM.
The like results for `COc1ccc(-n2c(-c3cc(C)on3)nc3cc(C(F)(F)F)cnc32)cn1` [Example 108, 3-(6-methoxypyridin-3-yl)-2-(5-methylisoxazol-3-yl)-6-(trifluoromethyl)-3H-imidazo[4,5-b]pyridine] were, in that order, 210 nM and 100 nM.
Taken in the same sequence, the figures for `COc1ccc(-n2c(-c3cscn3)nc3cc(C(F)(F)F)cnc32)cn1` [Example 109, 3-(6-methoxypyridin-3-yl)-2-(1,3-thiazol-4-yl)-6-(trifluoromethyl)-3H-imidazo[4,5-b]pyridine] were 95 nM and 23 nM.
On to `COc1ccc(-n2c(-c3csc(C)n3)nc3cc(C(F)(F)F)cnc32)cn1` [Example 110, 3-(6-methoxypyridin-3-yl)-2-(2-methyl-1,3-thiazol-4-yl)-6-(trifluoromethyl)-3H-imidazo[4,5-b]pyridine], for which the half-inhibitory concentration (IC50) in test [1] worked out at 130 nM; in test [2], 120 nM.
Turning to `COc1ccc(-n2c(-c3coc(C)n3)nc3cc(C(F)(F)F)cnc32)cn1` [Example 122, 3-(6-methoxypyridin-3-yl)-2-(2-methyl-1,3-oxazol-4-yl)-6-(trifluoromethyl)-3H-imidazo[4,5-b]pyridine], the IC50 in test [1] worked out at 34 nM; in test [2], 40 nM.
The like results for `COc1cnc(-n2c(-c3ccccn3)nc3cc(C(F)(F)F)cnc32)cn1` [Example 125, 3-(5-methoxypyrazine-2-yl)-2-pyridin-2-yl-6-(trifluoromethyl)-3H-imidazo[4,5-b]pyridine] were, in that order, 29 nM and 27 nM.
In the case of `COc1ccc(-n2c(-c3ncoc3C)nc3cc(C(F)(F)F)cnc32)cn1` [Example 126, 3-(6-methoxypyridin-3-yl)-2-(5-methyl-1,3-oxazol-4-yl)-6-(trifluoromethyl)-3H-imidazo[4,5-b]pyridine], the IC50 in test [1] came to 194 nM; in test [2] it was 90 nM.
The like results for `Cc1ccc(-n2c(-c3ccc(C#N)cn3)nc3cc(C(F)(F)F)cnc32)cn1` [Example 130, 6-[3-(6-methylpyridin-3-yl)-6-(trifluoromethyl)-3H-imidazo[4,5-b]pyridin-2-yl]nicotinonitrile] were, in that order, 177 nM and 170 nM.
The like results for `COc1ccc(-n2c(-c3coc(C)n3)nc3cc(C(F)(F)F)ccc32)nn1` [Example 139, 1-(6-methoxypyridazin-3-yl)-2-(2-methyl-1,3-oxazol-4-yl)-5-(trifluoromethyl)-1H-benzimidazole] were, in that order, 60 nM and 86 nM.
With `COc1cnc(-n2c(-c3ccc(F)cn3)nc3cc(C(F)(F)F)cnc32)cn1` [Example 144, 2-(5-fluoropyridin-2-yl)-3-(5-methoxypyrazine-2-yl)-6-(trifluoromethyl)-3H-imidazo[4,5-b]pyridine], the 50% inhibitory concentration (IC50) in test [1] is 30 nM; in test [2] it was 22 nM.
For `COc1ccc(-n2c(-c3ccccn3)nc3cc(OC(C)C)cnc32)cn1` [Example 145, 6-isopropoxy-3-(6-methoxypyridin-3-yl)-2-pyridin-2-yl-3H-imidazo[4,5-b]pyridine], the IC50 in test [1] worked out at 74 nM; in test [2], 106 nM.
Regarding `COc1ccc(-n2c(-c3ccccn3)nc3cc(OC(F)F)cnc32)cn1` [Example 146, 6-(difluoromethoxy)-3-(6-methoxypyridin-3-yl)-2-pyridin-2-yl-3H-imidazo[4,5-b]pyridine], the IC50 came to 78 nM in test [1] and 66 nM in test [2].
Taken in the same sequence, the figures for `CNc1ccc(-n2c(-c3ccc(C#N)cn3)nc3cc(C(F)(F)F)cnc32)cn1` [Example 150, 6-{3-[6-(methylamino)pyridin-3-yl]-6-(trifluoromethyl)-3H-imidazo[4,5-b]pyridin-2-yl]nicotinonitrile] were 205 nM and 205 nM.
Taken in the same sequence, the figures for `COc1cnc(-n2c(-c3cocn3)nc3cc(C(F)(F)F)cnc32)cn1` [Example 151, 3-(5-methoxypyrazine-2-yl)-2-(1,3-oxazol-4-yl)-6-(trifluoromethyl)-3H-imidazo[4,5-b]pyridine] were 24 nM and 24 nM.
With `COc1cnc(-n2c(-c3coc(C)n3)nc3cc(C(F)(F)F)cnc32)cn1` [Example 152, 3-(5-methoxypyrazine-2-yl)-2-(2-methyl-1,3-oxazol-4-yl)-(trifluoromethyl)-3H-imidazo[4,5-b]pyridine], the IC50 in test [1] and in test [2] was 86 nM throughout.
As to `COc1cnc(-n2c(-c3cc(C)on3)nc3cc(C(F)(F)F)cnc32)cn1` [Example 154, 3-(5-methoxypyrazine-2-yl)-2-(5-methylisoxazol-3-yl)-6-(trifluoromethyl)-3H-imidazo[4,5-b]pyridine], the IC50 in test [1] and in test [2] was 129 nM each time.
Turning to `COc1ccc(-n2c(-c3cocn3)nc3cc(OC(F)(F)F)ccc32)nn1` [Example 155, 1-(6-methoxypyridazin-3-yl)-2-(1,3-oxazol-4-yl)-5-(trifluoromethoxy)-1H-benzimidazole], the half-inhibitory concentration (IC50) in test [1] and in test [2] was 29 nM throughout.
Consider `COc1ccc(-n2c(-c3coc(C)n3)nc3cc(OC(F)(F)F)ccc32)nn1` [Example 158, 1-(6-methoxypyridazin-3-yl)-2-(2-methyl-1,3-oxazol-4-yl)-5-(trifluoromethoxy)-1H-benzimidazole], for which the concentration for half-maximal inhibition (IC50) in test [1] and in test [2] was 60 nM in each case.
In the case of `COc1ccc(-n2c(-c3ccc(Cl)cn3)nc3cc(C(F)(F)F)cnc32)cn1` [Example 159, 2-(5-chloropyridin-2-yl)-3-(6-methoxypyridin-3-yl)-6-(trifluoromethyl)-3H-imidazo[4,5-b]pyridine], the IC50 in test [1] and in test [2] was 28 nM each time.
In the case of `CCCOc1cnc2c(c1)nc(-c1ccccn1)n2-c1ccc(OC)nc1` [Example 173, 3-(6-methoxypyridin-3-yl)-6-propoxy-2-pyridin-2-yl-3H-imidazo[4,5-b]pyridine], the values for the 50% inhibitory concentration (IC50) in test [1] and in test [2] were 77 nM and 85 nM, respectively.
